Laboratory results as given in DBAASP.
In brackets after ≈: the same amount, converted by molar mass. Several values for one entry are separate records, joined by “and”; a condition that tells them apart may be missing. Equal entries are not always repeated.

How the values were obtained:
Assay in all cases: ≥ marks a high value that may be exact or a test limit, other limits are often not marked, values filed in µg/mL are converted to µM
Aureobasidium pullulans = test system: Aureobasidium pullulans
[1] = test system: Candida albicans ATCC 10231
[2] = test system: Corynebacterium glutamicum ATCC 13032
[3] = test system: Escherichia coli ATCC 25922
[4] = test system: Pseudomonas aeruginosa ATCC 27853
[5] = test system: Staphylococcus aureus ATCC 9144
Escherichia coli K-12 = test system: Escherichia coli K-12
[6] = test system: Staphylococcus aureus JE2
Escherichia coli UB1005 = test system: Escherichia coli UB1005
[7] = test system: Pseudomonas aeruginosa H187
[8] = test system: Bacillus subtilis KCTC 3068
[9] = test system: Enterococcus faecium ATCC 51559
[10] = test system: Escherichia coli KCTC 1682
[11] = test system: Pseudomonas aeruginosa CCARM 2095
[12] = test system: Pseudomonas aeruginosa CCARM 2109
[13] = test system: Pseudomonas aeruginosa KCTC 1637
[14] = test system: Salmonella typhimurium KCTC 1926
[15] = test system: Staphylococcus aureus CCARM 3089
[16] = test system: Staphylococcus aureus CCARM 3090
[17] = test system: Staphylococcus aureus CCARM 3095
[18] = test system: Staphylococcus aureus KCTC 1621
[19] = test system: Staphylococcus epidermidis KCTC 1917
[20] = test system: Escherichia coli CVCC 1515
Escherichia coli K88 = test system: Escherichia coli K88
[21] = test system: Salmonella enterica subsp. enterica serovar Typhimurium ATCC 14028
[22] = test system: Staphylococcus aureus ATCC 29213
[23] = test system: Staphylococcus epidermidis ATCC 12228
Acinetobacter baumannii = test system: Acinetobacter baumannii
[24] = test system: Bacillus cereus CGMCC 1.932
[25] = test system: Bacillus subtilis CMCC 63501
[26] = test system: Enterococcus faecalis ATCC 29212
Escherichia coli 078 = test system: Escherichia coli 078
Escherichia coli K99 = test system: Escherichia coli K99
[27] = test system: Listeria monocytogenes CGMCC 1.1075
[28] = test system: Pseudomonas aeruginosa PAO1
[29] = test system: Salmonella enterica subsp. enterica serovar Pullorum ATCC 7913
[30] = test system: Salmonella typhimurium ATCC 7731
[31] = test system: Staphylococcus aureus ATCC 25923
[32] = test system: Staphylococcus aureus ATCC 43300

Q: For `CC(C)[C@H](NC(=O)[C@H](CCCCN)NC(=O)[C@H](C)NC(=O)[C@@H](NC(=O)[C@@H](NC(=O)[C@H](CCCN=C(N)N)NC(=O)[C@H](CCCN=C(N)N)NC(=O)[C@H](Cc1c[nH]c2ccccc12)NC(=O)[C@H](C)NC(=O)CN)[C@@H](C)O)C(C)C)C(=O)N[C@@H](CCCN=C(N)N)C(=O)N[C@@H](CCCCN)C(N)=O` [GAWRRTVAKVRK], which MIC (Aureobasidium pullulans) is on record?
A: ≥ 50 µM

Q: And the MIC [1]?
A: 50 µM (≈ 71.3 µg/mL)

Q: And the MIC [2]?
A: 3.1 µM (≈ 4.42 µg/mL)

Q: What about the MIC [3] of the same molecule?
A: 50 µM (≈ 71.3 µg/mL)

Q: What about the MIC [4] of the same molecule?
A: 200 µM (≈ 285 µg/mL)

Q: What about the MIC [5] of the same molecule?
A: ≥ 100 µM

Q: What does the source list for `CC[C@H](C)[C@H](NC(=O)[C@@H](NC(=O)[C@H](CO)NC(=O)[C@H](C)NC(=O)[C@@H](NC(=O)CNC(=O)[C@H](CCCCN)NC(=O)[C@H](CCCCN)NC(=O)[C@@H](NC(=O)[C@@H](NC(=O)[C@H](CC(=O)O)NC(=O)[C@H](Cc1ccccc1)NC(=O)[C@H](CC(C)C)NC(=O)CN)C(C)C)[C@@H](C)CC)C(C)C)C(C)C)C(=O)NCC(=O)NCC(=O)N[C@@H](CC(C)C)C(=O)O` [GLFDVIKKGVASVIGGL]?
A: MIC (Escherichia coli K-12): ≥ 38.3 µM; MIC [6]: ≥ 153 µM

Q: What does the source list for `CC[C@H](C)[C@H](NC(=O)[C@H](Cc1ccccc1)NC(=O)[C@H](CO)NC(=O)[C@H](CCCCN)NC(=O)[C@H](Cc1c[nH]c2ccccc12)NC(=O)[C@@H](N)CCCCN)C(=O)N[C@@H](CCCCN)C(=O)N[C@@H](CC(N)=O)C(=O)N[C@@H](CC(C)C)C(=O)N[C@@H](CCC(=O)O)C(=O)N[C@@H](CCCCN)C(=O)N[C@H](C(=O)N[C@@H](CC(C)C)C(=O)N[C@@H](CCCCN)C(=O)N[C@@H](CCCCN)C(=O)NCC(=O)N1CCC[C@H]1C(=O)N[C@H](C(=O)N[C@@H](CC(C)C)C(=O)N[C@@H](C)C(=O)N[C@@H](CC(N)=O)C(=O)N[C@@H](CC(C)C)C(=O)N[C@H](C(=O)N[C@@H](CO)C(=O)N[C@H](C(=O)N[C@H](C(=O)O)C(C)C)[C@@H](C)CC)C(C)C)[C@@H](C)CC)C(C)C` [KWKSFIKNLEKVLKKGPILANLVSIV]?
A: MIC (Escherichia coli UB1005): 0.674 µM (≈ 2 µg/mL); MIC [7]: 2.7 µM (≈ 8 µg/mL)

Q: What does the source list for `CC[C@H](C)[C@H](NC(=O)[C@H](C)NC(=O)[C@H](CCCN=C(N)N)NC(=O)[C@H](Cc1ccc(O)cc1)NC(=O)[C@H](CC(C)C)NC(=O)[C@H](CCCCN)NC(=O)[C@H](Cc1ccc(O)cc1)NC(=O)CNC(=O)[C@H](C)NC(=O)[C@H](CCCN=C(N)N)NC(=O)[C@@H](NC(=O)[C@H](Cc1c[nH]c2ccccc12)NC(=O)[C@H](CCCN=C(N)N)NC(=O)[C@@H](NC(=O)[C@@H](NC(=O)[C@@H](N)CC(C)C)C(C)C)[C@@H](C)CC)C(C)C)C(=O)N[C@@H](CCCCN)C(=O)N[C@@H](CCCCN)C(=O)N[C@@H](CCCCN)C(N)=O` [LVIRWVRAGYKLYRAIKKK]?
A: MIC [8]: 2 µM (≈ 4.72 µg/mL); MIC [9]: 4 µM (≈ 9.44 µg/mL); MIC [10]: 4 µM and 8 µM; MIC [11]: 2 µM (≈ 4.72 µg/mL); MIC [12]: 4 µM (≈ 9.44 µg/mL); MIC [13]: 8 µM (≈ 18.9 µg/mL); MIC [14]: 2 µM (≈ 4.72 µg/mL); MIC [15]: 4 µM (≈ 9.44 µg/mL); MIC [16]: 2 µM (≈ 4.72 µg/mL); MIC [17]: 2 µM (≈ 4.72 µg/mL); MIC [18]: 2 µM and 4 µM; MIC [19]: 4 µM (≈ 9.44 µg/mL)

Q: `CC(C)C[C@H](NC(=O)[C@H](CCCCN)NC(=O)[C@H](C)NC(=O)[C@H](C)NC(=O)[C@H](C)NC(=O)[C@H](CCCCN)NC(=O)[C@H](C)NC(=O)[C@H](C)NC(=O)[C@H](C)NC(=O)[C@H](CCCCN)NC(=O)[C@H](Cc1c[nH]c2ccccc12)NC(=O)[C@@H](N)CC(C)C)C(=O)N[C@@H](Cc1c[nH]c2ccccc12)C(N)=O` [LWKAAAKAAAKLW] was tested. Which MIC [3] did it give?
A: 4 µM (≈ 5.71 µg/mL)

Q: And the MIC [20]?
A: 8 µM (≈ 11.4 µg/mL)

Q: And the MIC (Escherichia coli K88)?
A: 4 µM (≈ 5.71 µg/mL)

Q: And the MIC (Escherichia coli UB1005)?
A: 8 µM (≈ 11.4 µg/mL)

Q: What about the MIC [4] of the same molecule?
A: 8 µM (≈ 11.4 µg/mL)

Q: And the MIC [21]?
A: 32 µM (≈ 45.7 µg/mL)

Q: And the MIC [22]?
A: 8 µM (≈ 11.4 µg/mL)

Q: What about the MIC [23] of the same molecule?
A: 8 µM (≈ 11.4 µg/mL)

Q: Which results are given for `CC[C@H](C)[C@@H]1NC(=O)[C@H]([C@@H](C)O)NC(=O)[C@H](Cc2cnc[nH]2)NC(=O)[C@H](CCCN=C(N)N)NC(=O)[C@H](C)NC(=O)[C@H](CCCN=C(N)N)NC(=O)[C@H](CC(C)C)NC(=O)[C@H](CO)NC(=O)[C@H](C)NC(=O)[C@@H](NC(=O)[C@H](CC(C)C)NC(=O)[C@@H](N)CC(N)=O)CSSC[C@@H](C(=O)N[C@@H](CCCN=C(N)N)C(=O)N[C@@H](CCCCN)C(=O)N[C@@H](Cc2ccccc2)C(=O)NCC(=O)N[C@@H](CCCN=C(N)N)C(=O)N[C@@H](CCCN=C(N)N)C(=O)O)NC(=O)[C@H](CCC(N)=O)NC(=O)[C@@H]2CCCN2C1=O` [NLCASLRARHTIPQCRKFGRR]?
A: MIC [8]: 12.5 µM (≈ 31 µg/mL); MIC [9]: 25 µM (≈ 62 µg/mL); MIC [10]: 12.5 µM (≈ 31 µg/mL); MIC [11]: ≥ 50 µM; MIC [13]: 12.5 µM (≈ 31 µg/mL); MIC [14]: 12.5 µM (≈ 31 µg/mL); MIC [15]: 12.5 µM (≈ 31 µg/mL); MIC [16]: 25 µM (≈ 62 µg/mL); MIC [17]: 12.5 µM (≈ 31 µg/mL); MIC [18]: 12.5 µM (≈ 31 µg/mL); MIC [19]: 12.5 µM (≈ 31 µg/mL)

Q: `C[C@H](NC(=O)[C@H](CCCN=C(N)N)NC(=O)[C@H](Cc1c[nH]c2ccccc12)NC(=O)[C@H](CCCN=C(N)N)NC(=O)[C@H](Cc1c[nH]c2ccccc12)NC(=O)[C@H](Cc1c[nH]c2ccccc12)NC(=O)[C@H](Cc1c[nH]c2ccccc12)NC(=O)[C@H](CCCN=C(N)N)NC(=O)[C@H](Cc1c[nH]c2ccccc12)NC(=O)[C@H](CCCN=C(N)N)NC(=O)[C@@H](N)CO)C(N)=O` [SRWRWWWRWRA] was tested. Which MIC (Acinetobacter baumannii) did it give?
A: 2 µM (≈ 3.46 µg/mL)

Q: What about the MIC [24] of the same molecule?
A: 4 µM (≈ 6.92 µg/mL)

Q: And the MIC [25]?
A: 8 µM (≈ 13.8 µg/mL)

Q: And the MIC [26]?
A: 4 µM (≈ 6.92 µg/mL)

Q: And the MIC (Escherichia coli 078)?
A: 2 µM (≈ 3.46 µg/mL)

Q: What about the MIC (Escherichia coli K88) of the same molecule?
A: 4 µM (≈ 6.92 µg/mL)

Q: What about the MIC (Escherichia coli K99) of the same molecule?
A: 1 µM (≈ 1.73 µg/mL)

Q: What about the MIC (Escherichia coli UB1005) of the same molecule?
A: 1 µM (≈ 1.73 µg/mL)

Q: What about the MIC [27] of the same molecule?
A: 2 µM (≈ 3.46 µg/mL)

Q: What about the MIC [4] of the same molecule?
A: 2 µM (≈ 3.46 µg/mL)

Q: What about the MIC [28] of the same molecule?
A: 4 µM (≈ 6.92 µg/mL)

Q: And the MIC [29]?
A: 0.5 µM (≈ 0.866 µg/mL)

Q: What about the MIC [21] of the same molecule?
A: 2 µM (≈ 3.46 µg/mL)

Q: What about the MIC [30] of the same molecule?
A: 4 µM (≈ 6.92 µg/mL)

Q: And the MIC [31]?
A: 1 µM (≈ 1.73 µg/mL)

Q: And the MIC [32]?
A: 2 µM (≈ 3.46 µg/mL)

Q: And the MIC [23]?
A: 0.5 µM (≈ 0.866 µg/mL)

Q: `C[C@H](NC(=O)[C@H](CCCN=C(N)N)NC(=O)[C@H](Cc1c[nH]c2ccccc12)NC(=O)[C@H](CCCN=C(N)N)NC(=O)[C@H](Cc1c[nH]c2ccccc12)NC(=O)[C@H](Cc1c[nH]c2ccccc12)NC(=O)[C@H](Cc1c[nH]c2ccccc12)NC(=O)[C@H](CCCN=C(N)N)NC(=O)[C@H](Cc1c[nH]c2ccccc12)NC(=O)[C@H](CCCN=C(N)N)NC(=O)[C@@H](N)[C@@H](C)O)C(N)=O` [TRWRWWWRWRA] was tested. Which MIC (Acinetobacter baumannii) did it give?
A: 2 µM (≈ 3.49 µg/mL)

Q: What about the MIC [24] of the same molecule?
A: 8 µM (≈ 14 µg/mL)

Q: And the MIC [25]?
A: 16 µM (≈ 27.9 µg/mL)

Q: What about the MIC [26] of the same molecule?
A: 4 µM (≈ 6.98 µg/mL)

Q: And the MIC (Escherichia coli 078)?
A: 2 µM (≈ 3.49 µg/mL)

Q: And the MIC (Escherichia coli K88)?
A: 2 µM (≈ 3.49 µg/mL)

Q: What about the MIC (Escherichia coli K99) of the same molecule?
A: 2 µM (≈ 3.49 µg/mL)

Q: What about the MIC (Escherichia coli UB1005) of the same molecule?
A: 1 µM (≈ 1.75 µg/mL)

Q: What about the MIC [27] of the same molecule?
A: 1 µM (≈ 1.75 µg/mL)

Q: What about the MIC [4] of the same molecule?
A: 2 µM (≈ 3.49 µg/mL)

Q: What about the MIC [28] of the same molecule?
A: 16 µM (≈ 27.9 µg/mL)

Q: What about the MIC [29] of the same molecule?
A: 1 µM (≈ 1.75 µg/mL)

Q: And the MIC [21]?
A: 1 µM (≈ 1.75 µg/mL)

Q: What about the MIC [30] of the same molecule?
A: 2 µM (≈ 3.49 µg/mL)

Q: What about the MIC [31] of the same molecule?
A: 1 µM (≈ 1.75 µg/mL)

Q: What about the MIC [32] of the same molecule?
A: 2 µM (≈ 3.49 µg/mL)

Q: And the MIC [23]?
A: 1 µM (≈ 1.75 µg/mL)
